According to patent US11807625B2, “Capsid inhibitors for the prevention of HIV” (Gilead Sciences, Inc., priority 2019, dated 2023):

Test system: rhesus plasma protein
Assay: Competitive equilibrium dialysis (EQDS) assay, rhesus plasma protein binding
Format: in vitro ADME
Details: EC95 adjusted for rhesus plasma protein binding (competitive equilibrium dialysis)
Procedure: The mean 95% effective concentration (EC95) of 1.91±0.16 nM for a compound of Formula (Ib) (“Compound Ib”) was determined using a 7-day antiviral assay (p24 ELISA endpoint) in rhesus peripheral blood mononuclear cells (PBMCs) infected with SHIV-162P3. A competitive equilibrium dialysis assay was used to quantify rhesus plasma protein binding to Compound Ib, resulting in an inhibitory quotient (IQ) equal to Compound Ib plasma concentrations divided by a mean rhesus plasma protein-binding-adjusted EC95 (paEC95) value of 30.2±2.5 nM.
Equilibrium dialysis shift (EQDS) assay details: Rhesus plasma protein binding to a compound of Formula (Ib) (“Compound Ib”) was determined by competitive equilibrium dialysis. Rhesus plasma (10%) was spiked with Compound Ib (2 μM) and blank RPMI cell culture medium containing 2% fetal bovine serum (CCM) were placed into opposite sides of assembled dialysis cells, and incubations were performed in triplicate. After a 24-h equilibration period at 37° C., samples were corrected for the matrix effect, quenched, and quantified by liquid chromatography tandem mass spectrometry (LC-MS/MS) with electrospray ionization in positive mode and multiple-reaction monitoring (MRM). The fold change value in 100% rhesus plasma was then calculated using the plasma/CCM ratio after correcting for the sample dilution factor and the percent free fraction in the matrix.

For CC(C)(C#Cc1ccc(-c2ccc(Cl)c3c(NS(=O)(=O)C4CC4)nn(CC(F)F)c23)c([C@H](Cc2cc(F)cc(F)c2)NC(=O)Cn2nc(C(F)F)c3c2C(F)(F)[C@@H]2C[C@H]32)n1)S(C)(=O)=O [Compound Ib, N—((S)-1-(3-(4-chloro-3-(cyclopropanesulfonamido)-1-(2,2-difluoroethyl)-1H-indazol-7-yl)-6-(3-methyl-3-(methylsulfonyl)but-1-yn-1-yl)pyridin-2-yl)-2-(3,5-difluorophenyl)ethyl)-2-((3b S,4aR)-3-(difluoromethyl)-5,5-difluoro-3b,4,4a,5-tetrahydro-1H-cyclopropa[3,4]cyclopenta[1,2-c]pyrazol-1-yl)acetamide], the “mean rhesus plasma protein-binding-adjusted EC95 (paEC95)” value was 30.2 ± 2.5 nM.
